# According to publication PMC6704710, “Preclinical evaluation of 3D185, a novel potent inhibitor of FGFR1/2/3 and CSF-1R, in FGFR-dependent and macrophage-dominant cancer models” (Journal of Experimental & Clinical Cancer Research : CR, 2019):
# Key:
# Test in all cases: Eurofins kinase panel
# Assay type in all cases: biochemical
# FAK(h) = target: T1, FAK(h) (Homo sapiens, UniProt Q05397); settings: read-out: Inhibition rate (%)
# T1 construct: purchased Eurofins (KinaseProfiler)
# MEK2(h) = target: T2, MEK2(h) (Homo sapiens, UniProt P36507); settings: read-out: Inhibition rate (%)
# T2 construct: purchased Eurofins (KinaseProfiler)
# FGFR1(h) = FGFR1(h) (Homo sapiens, UniProt P11362)
# MAPKAP-K3(h) = target: T3, MAPKAP-K3(h) (Homo sapiens, UniProt Q16644); settings: read-out: Inhibition rate (%)
# T3 construct: purchased Eurofins (KinaseProfiler)
# NEK4(h) = target: T4, NEK4(h) (Homo sapiens, UniProt P51957); settings: read-out: Inhibition rate (%)
# T4 construct: purchased Eurofins (KinaseProfiler)
# EphA5(h) = target: T5, EphA5(h) (Homo sapiens, UniProt P54756); settings: read-out: Inhibition rate (%)
# T5 construct: purchased Eurofins (KinaseProfiler)
# MST2(h) = target: T6, MST2(h) (Homo sapiens, UniProt Q13188); settings: read-out: Inhibition rate (%)
# T6 construct: purchased Eurofins (KinaseProfiler)
# T6 sequence (Q13188 1-491): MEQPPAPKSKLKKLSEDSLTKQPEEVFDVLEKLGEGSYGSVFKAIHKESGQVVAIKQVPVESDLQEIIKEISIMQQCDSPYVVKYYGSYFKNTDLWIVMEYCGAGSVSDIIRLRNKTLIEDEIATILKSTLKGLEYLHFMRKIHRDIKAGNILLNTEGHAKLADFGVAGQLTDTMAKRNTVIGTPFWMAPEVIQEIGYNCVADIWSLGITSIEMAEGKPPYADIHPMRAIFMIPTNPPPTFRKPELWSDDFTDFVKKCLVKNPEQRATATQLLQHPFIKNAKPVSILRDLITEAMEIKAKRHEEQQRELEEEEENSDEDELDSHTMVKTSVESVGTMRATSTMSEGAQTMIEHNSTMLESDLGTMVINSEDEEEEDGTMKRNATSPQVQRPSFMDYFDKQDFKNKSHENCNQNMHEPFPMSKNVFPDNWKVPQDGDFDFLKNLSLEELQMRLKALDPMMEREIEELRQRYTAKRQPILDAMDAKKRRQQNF
# [1] = target: T7, PI3 Kinase (p110α(E542K)/p85α)(h) (Homo sapiens, UniProt P42336, E542K); settings: read-out: Inhibition rate (%)
# T7 construct: purchased Eurofins (KinaseProfiler)
# MLCK(h) = target: T8, MLCK(h) (Homo sapiens, UniProt Q15746); settings: read-out: Inhibition rate (%)
# T8 construct: purchased Eurofins (KinaseProfiler)
# TTK(h) = target: T9, TTK(h) (Homo sapiens, UniProt P33981); settings: read-out: Inhibition rate (%)
# T9 construct: purchased Eurofins (KinaseProfiler)
# T9 sequence (P33981 1-857): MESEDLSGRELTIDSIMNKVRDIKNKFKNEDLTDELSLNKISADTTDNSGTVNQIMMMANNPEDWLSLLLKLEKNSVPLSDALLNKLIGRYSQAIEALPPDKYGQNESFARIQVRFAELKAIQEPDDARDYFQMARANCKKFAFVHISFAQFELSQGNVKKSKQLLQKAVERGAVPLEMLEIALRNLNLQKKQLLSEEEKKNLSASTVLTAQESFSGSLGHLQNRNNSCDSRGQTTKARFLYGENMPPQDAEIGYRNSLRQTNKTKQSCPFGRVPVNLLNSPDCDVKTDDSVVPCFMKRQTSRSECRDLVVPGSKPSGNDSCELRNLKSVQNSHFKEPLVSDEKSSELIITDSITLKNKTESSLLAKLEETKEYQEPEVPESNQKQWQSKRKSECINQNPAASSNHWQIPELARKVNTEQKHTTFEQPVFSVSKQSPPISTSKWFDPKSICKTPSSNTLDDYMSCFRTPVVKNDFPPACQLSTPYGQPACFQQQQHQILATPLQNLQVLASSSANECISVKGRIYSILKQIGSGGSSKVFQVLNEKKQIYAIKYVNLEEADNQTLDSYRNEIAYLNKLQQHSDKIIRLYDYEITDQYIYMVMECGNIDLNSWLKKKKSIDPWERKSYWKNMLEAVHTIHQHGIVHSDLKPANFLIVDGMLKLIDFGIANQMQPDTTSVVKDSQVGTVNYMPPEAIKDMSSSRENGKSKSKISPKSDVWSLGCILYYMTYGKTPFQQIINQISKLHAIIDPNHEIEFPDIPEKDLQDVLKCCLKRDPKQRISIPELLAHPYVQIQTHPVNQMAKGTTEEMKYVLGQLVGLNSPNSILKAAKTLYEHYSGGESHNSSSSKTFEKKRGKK
# CK1γ2(h) = target: T10, CK1γ2(h) (Homo sapiens, UniProt P78368); settings: read-out: Inhibition rate (%)
# T10 construct: purchased Eurofins (KinaseProfiler)
# CaMKIIδ(h) = target: T11, CaMKIIδ(h) (Homo sapiens, UniProt Q13557); settings: read-out: Inhibition rate (%)
# T11 construct: purchased Eurofins (KinaseProfiler)
# Pim-3(h) = target: T12, Pim-3(h) (Homo sapiens, UniProt Q86V86); settings: read-out: Inhibition rate (%)
# T12 construct: purchased Eurofins (KinaseProfiler)
# ALK1(h) = target: T13, ALK1(h) (Homo sapiens, UniProt P37023); settings: read-out: Inhibition rate (%)
# T13 construct: purchased Eurofins (KinaseProfiler)
# PDGFRα(h) = target: T14, PDGFRα(h) (Homo sapiens, UniProt P16234); settings: read-out: Inhibition rate (%)
# T14 construct: purchased Eurofins (KinaseProfiler)
# T14 sequence (P16234 24-1089): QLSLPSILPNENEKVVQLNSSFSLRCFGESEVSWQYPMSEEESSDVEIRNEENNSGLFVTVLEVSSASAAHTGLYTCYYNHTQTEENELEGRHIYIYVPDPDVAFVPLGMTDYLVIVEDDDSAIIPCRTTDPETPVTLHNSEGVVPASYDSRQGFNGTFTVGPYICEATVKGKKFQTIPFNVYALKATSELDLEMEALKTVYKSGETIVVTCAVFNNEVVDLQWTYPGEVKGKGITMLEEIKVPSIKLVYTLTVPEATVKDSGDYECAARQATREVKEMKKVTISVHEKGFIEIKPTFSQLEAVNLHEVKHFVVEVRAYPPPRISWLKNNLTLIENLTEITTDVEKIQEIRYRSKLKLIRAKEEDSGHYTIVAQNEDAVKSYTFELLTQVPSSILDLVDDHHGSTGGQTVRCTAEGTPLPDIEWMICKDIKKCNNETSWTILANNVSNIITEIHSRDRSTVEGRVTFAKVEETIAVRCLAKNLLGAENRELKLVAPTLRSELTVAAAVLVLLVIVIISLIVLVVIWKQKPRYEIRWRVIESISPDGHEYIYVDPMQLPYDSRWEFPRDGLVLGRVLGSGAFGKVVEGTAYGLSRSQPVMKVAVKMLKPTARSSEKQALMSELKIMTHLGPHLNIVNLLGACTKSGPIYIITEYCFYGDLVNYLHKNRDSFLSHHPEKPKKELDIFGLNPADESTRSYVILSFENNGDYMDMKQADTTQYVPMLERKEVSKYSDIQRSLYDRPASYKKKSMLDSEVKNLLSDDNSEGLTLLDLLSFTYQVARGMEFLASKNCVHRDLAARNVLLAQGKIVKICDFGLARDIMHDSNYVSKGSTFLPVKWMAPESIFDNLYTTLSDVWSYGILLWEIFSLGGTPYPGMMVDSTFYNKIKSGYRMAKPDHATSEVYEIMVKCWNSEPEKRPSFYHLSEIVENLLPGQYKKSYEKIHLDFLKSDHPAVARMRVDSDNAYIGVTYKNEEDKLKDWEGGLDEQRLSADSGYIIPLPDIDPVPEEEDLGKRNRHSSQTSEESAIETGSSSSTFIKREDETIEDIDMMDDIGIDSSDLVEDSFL
# T1 sequence (Q05397 whole entry): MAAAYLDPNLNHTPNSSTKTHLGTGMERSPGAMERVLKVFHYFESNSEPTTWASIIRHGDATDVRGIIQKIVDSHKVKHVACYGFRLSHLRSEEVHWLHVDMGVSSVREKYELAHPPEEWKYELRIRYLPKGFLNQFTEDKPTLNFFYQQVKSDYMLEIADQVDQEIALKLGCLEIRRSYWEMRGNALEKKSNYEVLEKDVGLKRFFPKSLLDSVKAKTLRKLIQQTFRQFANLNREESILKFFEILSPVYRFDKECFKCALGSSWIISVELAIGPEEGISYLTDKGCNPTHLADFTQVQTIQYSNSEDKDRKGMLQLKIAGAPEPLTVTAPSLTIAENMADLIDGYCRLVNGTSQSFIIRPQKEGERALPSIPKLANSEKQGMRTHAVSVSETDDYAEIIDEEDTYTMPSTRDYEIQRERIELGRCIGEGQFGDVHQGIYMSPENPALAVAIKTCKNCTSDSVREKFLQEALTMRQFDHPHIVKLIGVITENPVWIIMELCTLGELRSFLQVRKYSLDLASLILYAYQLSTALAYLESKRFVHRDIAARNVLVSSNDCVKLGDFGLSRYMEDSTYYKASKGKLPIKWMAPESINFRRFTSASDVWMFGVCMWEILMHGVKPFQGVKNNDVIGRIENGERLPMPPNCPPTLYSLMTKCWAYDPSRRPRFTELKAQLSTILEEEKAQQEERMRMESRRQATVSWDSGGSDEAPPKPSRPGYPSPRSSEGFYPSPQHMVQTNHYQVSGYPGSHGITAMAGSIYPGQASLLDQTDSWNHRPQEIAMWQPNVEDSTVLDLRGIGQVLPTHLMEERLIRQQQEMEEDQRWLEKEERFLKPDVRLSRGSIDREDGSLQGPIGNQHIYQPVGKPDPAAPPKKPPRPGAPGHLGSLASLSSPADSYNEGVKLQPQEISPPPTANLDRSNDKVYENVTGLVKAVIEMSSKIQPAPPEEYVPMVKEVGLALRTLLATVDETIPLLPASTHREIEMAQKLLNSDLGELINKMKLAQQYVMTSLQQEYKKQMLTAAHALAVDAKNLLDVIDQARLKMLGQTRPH
# Chain of FGFR1(h) (P11362 22-822): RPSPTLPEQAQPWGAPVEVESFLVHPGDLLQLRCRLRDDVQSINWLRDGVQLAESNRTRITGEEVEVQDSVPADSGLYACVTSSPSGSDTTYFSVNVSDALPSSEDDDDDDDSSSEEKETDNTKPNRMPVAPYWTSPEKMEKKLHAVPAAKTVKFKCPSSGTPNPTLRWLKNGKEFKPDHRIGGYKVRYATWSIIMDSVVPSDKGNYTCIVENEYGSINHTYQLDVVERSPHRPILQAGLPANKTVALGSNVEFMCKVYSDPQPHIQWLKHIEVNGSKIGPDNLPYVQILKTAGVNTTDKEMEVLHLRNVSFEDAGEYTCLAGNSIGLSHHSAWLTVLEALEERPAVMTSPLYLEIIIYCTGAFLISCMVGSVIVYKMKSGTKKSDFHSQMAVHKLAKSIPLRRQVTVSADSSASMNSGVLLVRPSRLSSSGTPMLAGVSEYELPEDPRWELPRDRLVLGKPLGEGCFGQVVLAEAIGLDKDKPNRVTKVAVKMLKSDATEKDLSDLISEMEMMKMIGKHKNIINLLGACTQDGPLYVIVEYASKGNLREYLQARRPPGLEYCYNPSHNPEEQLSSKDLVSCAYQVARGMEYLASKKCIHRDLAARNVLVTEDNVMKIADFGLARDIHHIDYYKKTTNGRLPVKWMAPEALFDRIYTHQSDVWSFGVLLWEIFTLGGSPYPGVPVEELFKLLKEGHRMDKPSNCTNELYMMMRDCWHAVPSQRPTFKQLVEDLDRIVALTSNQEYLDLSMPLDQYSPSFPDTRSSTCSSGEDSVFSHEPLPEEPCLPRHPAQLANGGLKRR
# T4 sequence (P51957 whole entry): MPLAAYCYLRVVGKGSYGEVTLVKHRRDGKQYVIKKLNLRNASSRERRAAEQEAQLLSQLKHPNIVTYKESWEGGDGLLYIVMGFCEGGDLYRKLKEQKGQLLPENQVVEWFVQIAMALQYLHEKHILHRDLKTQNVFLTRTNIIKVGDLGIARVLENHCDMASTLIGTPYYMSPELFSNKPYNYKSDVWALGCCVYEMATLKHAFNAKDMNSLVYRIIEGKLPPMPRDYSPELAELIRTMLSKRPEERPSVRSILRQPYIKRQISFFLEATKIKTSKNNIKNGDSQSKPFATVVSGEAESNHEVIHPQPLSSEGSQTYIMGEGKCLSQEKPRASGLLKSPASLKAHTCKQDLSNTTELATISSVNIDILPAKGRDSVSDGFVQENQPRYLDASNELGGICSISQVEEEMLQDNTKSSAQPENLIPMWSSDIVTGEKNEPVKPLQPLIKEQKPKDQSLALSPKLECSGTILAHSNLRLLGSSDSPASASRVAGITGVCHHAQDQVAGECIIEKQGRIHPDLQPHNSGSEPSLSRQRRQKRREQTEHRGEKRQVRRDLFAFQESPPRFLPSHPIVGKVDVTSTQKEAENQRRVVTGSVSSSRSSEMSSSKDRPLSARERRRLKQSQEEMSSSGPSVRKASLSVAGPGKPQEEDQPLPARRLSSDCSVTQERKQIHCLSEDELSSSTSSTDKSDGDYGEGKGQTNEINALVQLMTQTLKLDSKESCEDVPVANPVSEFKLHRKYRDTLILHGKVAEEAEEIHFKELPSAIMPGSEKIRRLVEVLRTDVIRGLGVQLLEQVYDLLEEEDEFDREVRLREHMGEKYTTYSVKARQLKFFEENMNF
# T10 sequence (P78368 whole entry): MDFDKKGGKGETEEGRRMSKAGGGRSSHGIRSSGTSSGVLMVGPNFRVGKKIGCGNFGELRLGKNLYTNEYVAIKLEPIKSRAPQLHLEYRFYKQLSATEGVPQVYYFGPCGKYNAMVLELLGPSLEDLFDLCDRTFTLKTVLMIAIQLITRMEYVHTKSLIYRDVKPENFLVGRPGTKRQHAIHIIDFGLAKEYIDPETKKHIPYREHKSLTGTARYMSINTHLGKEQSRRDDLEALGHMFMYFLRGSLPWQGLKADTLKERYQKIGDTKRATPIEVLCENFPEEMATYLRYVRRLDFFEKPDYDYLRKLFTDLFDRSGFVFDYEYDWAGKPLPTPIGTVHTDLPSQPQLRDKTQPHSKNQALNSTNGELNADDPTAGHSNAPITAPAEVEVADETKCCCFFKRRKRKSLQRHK
# T3 sequence (Q16644 whole entry): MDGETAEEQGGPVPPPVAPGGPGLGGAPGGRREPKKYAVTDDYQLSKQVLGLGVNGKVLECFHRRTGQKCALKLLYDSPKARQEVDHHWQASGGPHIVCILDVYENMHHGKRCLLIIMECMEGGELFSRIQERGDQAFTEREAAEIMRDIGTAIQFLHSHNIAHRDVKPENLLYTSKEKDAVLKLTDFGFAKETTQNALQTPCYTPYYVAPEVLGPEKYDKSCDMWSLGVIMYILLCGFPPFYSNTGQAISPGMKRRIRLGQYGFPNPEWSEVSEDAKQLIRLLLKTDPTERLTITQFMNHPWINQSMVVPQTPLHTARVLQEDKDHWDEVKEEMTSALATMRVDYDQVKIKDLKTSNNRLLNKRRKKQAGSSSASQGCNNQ
smiles,measurement,setting,value
COc1cc(OC)c(Cl)c(-c2ccc3c(NC(=O)c4ccc(N5CCNC(C)(C)C5)cc4)n[nH]c3n2)c1Cl [3D185],inhibition at 0.01 µM,FAK(h); 10 nM,17%
same,inhibition at 0.1 µM,FAK(h); 100 nM,29%
same,inhibition at 1 µM,FAK(h); 1000 nM,58%
same,inhibition at 0.01 µM,MEK2(h); 10 nM,-18%
same,inhibition at 0.1 µM,MEK2(h); 100 nM,-19%
same,inhibition at 1 µM,MEK2(h); 1000 nM,8%
same,IC50,FGFR1(h); estimated from 372-kinase panel,< 10 nM
same,inhibition at 0.01 µM,FGFR1(h); read-out: Inhibition rate (%),99%
same,inhibition at 0.1 µM,FGFR1(h); read-out: Inhibition rate (%),98%
same,inhibition at 1 µM,FGFR1(h); read-out: Inhibition rate (%),100%
same,inhibition at 0.01 µM,MAPKAP-K3(h); 10 nM,8%
same,inhibition at 0.1 µM,MAPKAP-K3(h); 100 nM,17%
same,inhibition at 1 µM,MAPKAP-K3(h); 1000 nM,19%
same,inhibition at 0.01 µM,NEK4(h); 10 nM,16%
same,inhibition at 0.1 µM,NEK4(h); 100 nM,15%
same,inhibition at 1 µM,NEK4(h); 1000 nM,74%
same,inhibition at 0.01 µM,EphA5(h); 10 nM,11%
same,inhibition at 0.1 µM,EphA5(h); 100 nM,10%
same,inhibition at 1 µM,EphA5(h); 1000 nM,13%
same,inhibition at 0.01 µM,MST2(h); 10 nM,16%
same,inhibition at 0.1 µM,MST2(h); 100 nM,41%
same,inhibition at 1 µM,MST2(h); 1000 nM,65%
same,inhibition at 0.01 µM,[1]; 10 nM,-2%
same,inhibition at 0.1 µM,[1]; 100 nM,2%
same,inhibition at 1 µM,[1]; 1000 nM,2%
same,inhibition at 0.01 µM,MLCK(h); 10 nM,5%
same,inhibition at 0.1 µM,MLCK(h); 100 nM,-1%
same,inhibition at 1 µM,MLCK(h); 1000 nM,11%
same,inhibition at 0.01 µM,TTK(h); 10 nM,5%
same,inhibition at 0.1 µM,TTK(h); 100 nM,-2%
same,inhibition at 1 µM,TTK(h); 1000 nM,12%
same,inhibition at 0.01 µM,CK1γ2(h); 10 nM,-9%
same,inhibition at 0.1 µM,CK1γ2(h); 100 nM,-8%
same,inhibition at 1 µM,CK1γ2(h); 1000 nM,-7%
same,inhibition at 0.01 µM,CaMKIIδ(h); 10 nM,-1%
same,inhibition at 0.1 µM,CaMKIIδ(h); 100 nM,-3%
same,inhibition at 1 µM,CaMKIIδ(h); 1000 nM,-3%
same,inhibition at 0.01 µM,Pim-3(h); 10 nM,-5%
same,inhibition at 0.1 µM,Pim-3(h); 100 nM,-11%
same,inhibition at 1 µM,Pim-3(h); 1000 nM,-1%
same,inhibition at 0.01 µM,ALK1(h); 10 nM,3%
same,inhibition at 0.1 µM,ALK1(h); 100 nM,-7%
same,inhibition at 1 µM,ALK1(h); 1000 nM,-1%
same,inhibition at 0.01 µM,PDGFRα(h); 10 nM,9%
same,inhibition at 0.1 µM,PDGFRα(h); 100 nM,6%
same,inhibition at 1 µM,PDGFRα(h); 1000 nM,10%
